# Measured values as given in patent publication US20090175995A1, “CONTROL OF FLAVOR CHARACTERISTICS OF AND INDICATOR OF FRESHNESS IN FRUIT JUICE” (TROPICANA PRODUCTS, INC., priority 2007, published 2009).
# Read-outs that look alike come from different tables or passages of the source.
# Key:
# Astringency Taste = assay: Astringency taste threshold, sensory; format: in vivo, human
# Description: The inventors have discovered that, as with bitterness, a plurality of compounds present in orange juice below the astringency threshold contributes to the astringent mouth feel of the juice.
# (§1) To make these evaluations, eleven assessors (four women and seven men, age 23-39 years), who participated for at least two years in weekly training sessions, determined taste recognition threshold concentrations in bottled water (pH 5.1) by means of a three-alternative forced-choice method with ascending concentrations of the stimulus following the procedure reported previously in Stark, T.; Barenther, S.; Hofmann, T. (2005) J. Agric. Food Chem. 53:5407-5418.
# Bitter Taste = assay: Bitter taste recognition threshold, trained sensory panel; format: in vivo, human
# Protocol: To study the influence of the chirality of C(17) on the sensory activity of these limonoids, bitter threshold concentrations were determined for limonin and C17-epilimonin.
# as §1
# [1] = Incubation of limonin in aqueous solution, formation of isolimonin; format: physicochemical; conditions: pH of 3
# [2] = Non-enzymatic release of limonin from limonin-17-β-D-glucopyranoside in aqueous solution on storage (HPLC-MS/MS); format: physicochemical; conditions: for limonin released from the glucopyranoside: up to 14 weeks in the dark; for limonin released from its precursor (yield): 14 weeks in the dark
# Protocol: To investigate the putative non-enzymatic release of limonin from limonin-17-β-D-glucopyranoside during storage of orange juice, aqueous solutions of the glucopyranoside adjusted to the pH value of a freshly squeezed orange juice (pH 3.5) or to the range of pH values found for orange juice concentrates (pH 2.0 and 3.0) were held at 20° C. for up to 14 weeks in the dark. At regular time intervals, aliquots were withdrawn from the model solutions and analyzed for the amount of limonin liberated from the glucopyranoside by means of HPLC-MS/MS operating in the MRM mode. […] For example, 0.85% mol of limonin was released from the glucopyranoside when maintained at pH 2.0, whereas at pH 3.5 only 0.25% of the bitter compound was generated.
# In order to investigate the influence of the temperature on limonin generation, aqueous solutions of the glucopyranoside adjusted to pH 3.0 were maintained at 4, 20, and 30° C. for up to 14 weeks in the dark. At regular time intervals, the amounts of limonin were determined by means of HPLC-MS/MS operating in the MRM mode. […] For example, limonin was released from its precursor in a yield of nearly 4.0% when incubated at 30° C., whereas only 0.2% of the bitter compound was detectable after storing the precursor solution at 4° C. for 14 weeks.
# In particular, aqueous solutions of limonin-17-β-D-glucopyranoside (0.35 mg/L) adjusted to pH value of 2.0, 3.0, and 3.5, respectively, by adding trace amounts of hydrochloric acid (1 mol/L) were maintained at different temperatures (4, 20, 30° C.) for up to 14 weeks in closed vials in the dark. At regular time intervals, samples (5 μL) were withdrawn with a syringe and were analyzed for the generation of limonin by means of LC-MS/MS on a Synergi Fusion, 150×2 mm i.d., 4 μm column (Phenomenex). To achieve this, chromatography was performed with a flow rate of 250 μL/min starting with a mixture (80/20, v/v) of 0.1% aqueous formic acid and acetonitrile, increasing the acetonitrile content to 40% within 10 min, then to 80% within 5 min, held for 5 min, and, finally, to 100% within 5 min. Using negative electrospray ionization, limonin was analyzed in the multiple reaction monitoring (MRM) mode using the mass transition m/z 469→229. Quantitative analysis was performed by comparing the peak areas obtained for the mass trace with those of defined standard solutions of limonin in methanol.
# [3] = Homo sapiens; read-out: Astringency Taste Threshold
# [4] = Homo sapiens; read-out: Bitter Taste Threshold
Compound,minimal effective concentration (Astringency Taste; [3]) [µM],minimal effective concentration (Bitter Taste; [4]) [µM],Astringency Taste Threshold (Astringency Taste; in vivo) [µmol/L],Bitter Taste Threshold (Bitter Taste; in vivo) [µmol/L],further results
"COc1cc(-c2cc(=O)c3c(OC)c(OC)c(OC)c(OC)c3o2)ccc1O [4′-hydroxy-3′,5,6,7,8-pentamethoxyflavone]",6,25,,,
"COc1ccc(-c2cc(=O)c3c(OC)c(OC)c(OC)cc3o2)cc1OC [5,6,7,3′,4′-pentamethoxyflavone]",24,56,,,
Epiisoobacunoic acid 17-β-D-glucopyranoside,,,16,42,
"5,6,7,8,3′,4′-hexamethoxyflavoneglucoside",,,20,78,
Nomilin acid β-glpc,,,,>800,
"COc1ccc(-c2oc3cc(OC)c(OC)c(OC)c3c(=O)c2O[C@@H]2O[C@H](CO)[C@@H](O)[C@H](O)[C@H]2O)cc1OC [5,6,7,3′,4′-pentamethoxy-flavone-3-O-β-D-glucopyranoside]",,,21,61,
"COc1ccc(-c2cc(=O)c3c(OC)c(OC)c(OC)cc3o2)cc1 [5,6,7,4′-tetramethoxyflavone]",,,,,"minimal effective concentration (Astringency Taste; Homo sapiens, read-out: Astringency Taste Threshold): 31 µM"
"CC1(C)O[C@H]2CC(=O)OC[C@]23[C@H]2CC[C@@]4(C)[C@H](c5ccoc5)OC(=O)[C@H]5O[C@]54[C@]2(C)C(=O)C[C@@H]13 [Limonin, reference compound]",4,4,,,"formation of isolimonin on incubation (direct epimerization) [1]: does not produce significant quantity of isolimonin; bitter threshold concentration (Bitter Taste; bottled water pH 5.1, three-alternative forced-choice, eleven assessors): 4.0 µmol/L; times more bitter than caffeine (Bitter Taste; relative to caffeine): ~200 times; times more bitter than catechin (Bitter Taste; relative to catechin): 150 times"
"COc1ccc2c(=O)cc(-c3ccc(OC)c(OC)c3)oc2c1 [7,3′,4′-trimethoxyflavone]",15,> 400,,,
"COc1ccc(-c2cc(=O)c3ccc(OC)c(OC)c3o2)cc1OC [7,8,3′,4′-tetramethoxyflavone]",44,> 400,,,
"COc1ccc(-c2cc(=O)c3c(OC)c(OC)c(OC)c(OC)c3o2)cc1OC [5,6,7,8,3′,4′-hexamethoxyflavone]",51,103,,,
"5,6,7,3′,4′-pentamethoxyflavoneglucoside",,,21,61,
"COc1ccc(-c2oc3cc(OC)c(OC)c(OC)c3c(=O)c2OC)cc1OC [3,5,6,7,3′,4′-hexamethoxyflavone]",9,19,,,
C17-epilimonin [Isolimonin],,,,,"Astringency Taste Threshold (Astringency Taste): 10 mg/L; bitter threshold concentration (Bitter Taste; water; bottled water pH 5.1, three-alternative forced-choice, eleven assessors): 10.0 µg/L"
"COc1ccc(-c2cc(=O)c3c(OC)c(OC)c(OC)c(OC)c3o2)cc1 [5,6,7,8,4′-pentamethoxyflavone]",19,93,,,
"COc1ccc(-c2oc3c(OC)c(OC)c(OC)c(OC)c3c(=O)c2OC)cc1OC [3,5,6,7,8,3′,4′-heptamethoxyflavone]",4 to 5,24 to 31,,,
"COc1ccc(-c2oc3c(OC)c(OC)c(OC)c(OC)c3c(=O)c2O[C@@H]2O[C@H](CO)[C@@H](O)[C@H](O)[C@H]2O)cc1OC [5,6,7,8,3′,4′-Hexamethoxyflavone-3-O-β-D-glucopyranoside]",,,20,78,
CC1(C)O[C@H]2CC(=O)OC[C@]23[C@H]2CC[C@@](C)([C@@H](O[C@@H]4O[C@H](CO)[C@@H](O)[C@H](O)[C@H]4O)c4ccoc4)[C@@]4(O[C@@H]4C(=O)O)[C@]2(C)C(=O)C[C@@H]13 [Limonin-17-β-D-glucopyranoside],,,17,106,"limonin released from the glucopyranoside ([2]; pH 2.0, 20° C.): 0.85 % mol; limonin released from its precursor (yield) ([2]; pH 3.0, 4° C.): 0.2%; limonin released from its precursor (yield) ([2]; pH 3.0, 30° C.): ~4.0%; limonin released from the glucopyranoside ([2]; pH 3.5, 20° C.): 0.25%"
CC(=O)O[C@H]1CC(=O)OC(C)(C)[C@@H]2CC(=O)[C@]3(C)[C@H](CC[C@@]4(C)[C@H](c5ccoc5)OC(=O)[C@H]5O[C@]543)[C@@]12C [Nomilin],,,,,"minimal effective concentration (Bitter Taste; Homo sapiens, read-out: Bitter Taste Threshold): 13 µM; times more bitter than caffeine (Bitter Taste; relative to caffeine): ~150 times; times more bitter than catechin (Bitter Taste; relative to catechin): 45 times"
Obacunon β-glpc,,,,49,
Deacetylnomilinic acid-17-β-D-glucopyranoside,,,27,68,
"COc1ccc(-c2cc(=O)c3c(OC)cc(OC)c(OC)c3o2)cc1 [5,7,8,4′-tetramethoxyflavone]",44,> 120,,,
"COc1ccc(-c2cc(=O)c3c(OC)cc(OC)c(OC)c3o2)cc1OC [5,7,8,3′,4′-pentamethoxyflavone]",13,32,,,
CC1(C)OC(=O)C[C@H](O)[C@]2(C)[C@H]3CC[C@@]4(C)[C@H](c5ccoc5)OC(=O)[C@H]5O[C@]54[C@]3(C)C(=O)C[C@@H]12 [Deacetylnomilin],,,13.2,>106,
"COc1ccc(-c2oc3c(OC)c(OC)cc(OC)c3c(=O)c2OC)cc1OC [3,5,7,8,3′,4′-hexamethoxyflavone]",125,> 250,,,
Nomilin β-glpc,,,,>700,
